Measured values: patent US11541033B2, “Agent for preventing or treating Alzheimer's disease” (FUJIFILM Toyama Chemical Co., Ltd., priority 2017, dated 2023)

What was measured:
Format in all cases: in vivo, human
[1] = system: mild to moderate AD patients; experiment: Test Example 1: phase II placebo-controlled trial, ADCS-ADL change from baseline
Source text: (§1) Test Example 1 Multicenter Randomized Double-Blind Phase II Placebo-Controlled Trial for Assessing Effectiveness and Safety of Compound a in Mild to Moderate AD Patients
(§2) Patients were screened in a period from 42 days before treatment assignment to the assignment based on the following selection criteria. Patients matched (484 patients) were randomly divided into the following 3 groups and the trial was started.
(§3) • Patients who were probable AD and are 55 years old or older and 85 years old or younger at the time of obtaining consent of screening. • Patients with an MMSE score of 12 to 22 at the time of screening • Patients with a Modified Hachinski Ischemia Scale score of 4 or less • Patients who have been treated with a donepezil hydrochloride or rivastigmine transdermal system for at least 4 months before the baseline and with a stable dose thereof for 3 months before the baseline. • In the case of patients who have received memantine in addition to being treated with a donepezil hydrochloride or rivastigmine transdermal system, patients who have been treated with memantine for at least 4 months before the baseline and with a stable dose thereof for 3 months before the baseline. • Patients whose brain MRI or CT results match AD at the time of screening Organization of Groups: (1) High dose group: 224 mg of a test compound (160 mg in terms of Compound A) was orally administered once a day for 4 weeks and then 448 mg of a test compound (320 mg in terms of Compound A) was orally administered once a day for 48 weeks (158 patients) (2) Low dose group: 224 mg of a test compound (160 mg in terms of Compound A) was orally administered once a day for 52 weeks (166 patients) (3) Placebo group: placebo was orally administered once a day for 52 weeks (158 patients) Method of assessment: (1) ADAS-cog
(§4) The ADCS-ADL score of the subject was evaluated at the baseline (before administration of investigational drug on the first day of administration) and after 52 weeks and the level of impairment was assessed based on the change from the baseline.
(§5) Changes in the ADAS-cog score and the ADCS-ADL score after 52 weeks from the baseline were compared between the high dose group and the placebo group, and between the low dose group and the placebo group based on the Mixed-effect Models for Repeated Measures (MMRM) with a significance level of 5%. For models, fixed effects included the treatment groups and time, while covariates included age, the baseline of ADAS-cog or ADCS-ADL, the baseline of MMSE and ApoE4 genotype (positive/negative). The interaction between time and the treatment groups and the interaction between the baseline of ADAS-cog and time were also included.

[2] = system: mild to moderate AD patients; experiment: Test Example 2: early phase II placebo-controlled trial, ADAS-cog change from baseline; settings: for Change in ADAS-cog from baseline at week 52, least square means (95% confidence interval) / Change in ADAS-cog from baseline at week 52, difference from placebo group (95% confidence interval): MMSE 22 or less at screening
Source text: (§6) Test Example 2 Multicenter Randomized Double-Blind Early Phase II Placebo-Controlled Trial for Assessing Effectiveness and Safety of Compound a in Mild to Moderate AD Patients
(§7) Patients were screened in a period from 28 days before treatment assignment to the assignment based on the following selection criteria. Patients matched (373 patients) were randomly divided into the following 2 groups and the trial was started.
(§8) • Patients who were probable AD and over or 50 years old or older and 90 years old or younger at the time of obtaining consent of screening. • Patients with an MMSE score of 15 to 24 at the time of screening • Patients with a Modified Hachinski Ischemia Scale score of 4 or less • Patients who have been treated with a donepezil hydrochloride for at least 6 months before the baseline and with a stable dose thereof for 3 months before the baseline. • Patients whose brain MRI or CT results match AD at the time of screening Organization of Groups: (1) Active drug group: 224 mg of a test compound (160 mg in terms of Compound A) was orally administered once a day for 52 weeks (176 patients) (2) Placebo group: placebo was orally administered once a day for 52 weeks (178 patients) Method of assessment: (1) ADAS-cog
(§9) The ADAS-cog score of the subject was evaluated at the baseline (before administration of investigational drug on the first day of administration) and after 52 weeks and the cognitive function was assessed based on the change from the baseline.
(§10) Changes in the ADAS-cog score and the ADCS-ADL score after 52 weeks from the baseline were compared between the high dose group and the placebo group, and between the low dose group and the placebo group based on MMRM with a significance level of 5%. For models, fixed effects included the treatment groups and time, while covariates included the baseline of ADAS-cog or ADCS-ADL and the baseline of MMSE. The interaction between time and the treatment groups and the interaction between the baseline of ADAS-cog and time were also included. For the period from clinical diagnosis, the first day of administration of donepezil hydrochloride which was combined with Compound A was defined as the time of clinical diagnosis. Furthermore, to match the conditions with those of Test Example 1, the subject was patients with an MMSE score of 22 or less at the time of screening.

[3] = system: mild to moderate AD patients; experiment: Test Example 2: early phase II placebo-controlled trial, ADCS-ADL change from baseline; settings: for Change in ADCS-ADL from baseline at week 52, least square means (95% confidence interval) / Change in ADCS-ADL from baseline at week 52, difference from placebo group (95% confidence interval): MMSE 22 or less at screening
Source text: as §6, §7, §8, §4, §10

[4] = system: mild to moderate AD patients; experiment: Test Example 1: phase II placebo-controlled trial, ADAS-cog change from baseline
Source text: as §1, §2, §3, §9, §5

[5] = high dose group, more than 2.6 years from clinical diagnosis
[6] = high dose group, total (all periods from clinical diagnosis)
[7] = low dose group (160 mg in terms of Compound A, oral once a day, 52 weeks), within 2.6 years from clinical diagnosis
[8] = low dose group (160 mg), more than 2.6 years from clinical diagnosis
[9] = low dose group (160 mg), total (all periods from clinical diagnosis)
[10] = low dose group (160 mg), within 2.6 years from clinical diagnosis
[11] = low dose group (160 mg), total (all periods)
[12] = high dose group, within 2.8 years from clinical diagnosis
[13] = high dose group, within 3 years from clinical diagnosis
[14] = high dose group, within 3.2 years from clinical diagnosis
[15] = high dose group, within 3.4 years from clinical diagnosis
[16] = high dose group, within 3.6 years from clinical diagnosis
[17] = high dose group, within 3.8 years from clinical diagnosis
[18] = high dose group, within 4.0 years from clinical diagnosis
[19] = high dose group, within 5.0 years from clinical diagnosis
[20] = high dose group, within 6.0 years from clinical diagnosis

OC1CN(CCCOCCc2ccc3sccc3c2)C1 [Compound A, 1-(3-(2-(1-benzothiophen-5-yl)ethoxy)propyl)azetidin-3-ol]
Reduction in ADCS-ADL from the baseline at week 52 (in words) ([1]; Test Example 1, high dose group): tended to be suppressed
Tendency to suppress reduction in ADCS-ADL, patients within 2.6 years versus all patients (in words) ([1]; Test Example 1, high dose group, week 52): more remarkable
Change in ADCS-ADL from baseline at week 52, least square means (95% confidence interval) ([1]; high dose group (160 mg 4 weeks then 320 mg 48 weeks, oral once a day), within 2.6 years from clinical diagnosis): −8.6(−11.2, −5.9)
Change in ADCS-ADL from baseline at week 52, difference from placebo group (95% confidence interval) [1, 5]: −0.9 (−4.7, 2.8)
Change in ADCS-ADL from baseline at week 52, least square means (95% confidence interval) [1, 5]: −11.6(−14.5, −8.8)
Change in ADCS-ADL from baseline at week 52, difference from placebo group (95% confidence interval) [1, 6]: 1.2(−1.3, 3.8)
Change in ADCS-ADL from baseline at week 52, least square means (95% confidence interval) [1, 6]: −10.1(−12.0, −8.1)
Change in ADCS-ADL from baseline at week 52, difference from placebo group (95% confidence interval) ([1]; high dose group, within 2.6 years from clinical diagnosis): 3.1(−0.4, 6.6)
Change in ADCS-ADL from baseline at week 52, least square means (95% confidence interval) [1, 7]: −11.7(−14.5, −9.0)
Change in ADCS-ADL from baseline at week 52, difference from placebo group (95% confidence interval) [1, 8]: 0.3(−3.2, 3.8)
Change in ADCS-ADL from baseline at week 52, least square means (95% confidence interval) [1, 8]: −10.4(−13.0, −7.8)
Change in ADCS-ADL from baseline at week 52, difference from placebo group (95% confidence interval) [1, 9]: 0.2(−2.3, 2.7)
Change in ADCS-ADL from baseline at week 52, least square means (95% confidence interval) [1, 9]: −11.0(−13.0, −9.1)
Change in ADCS-ADL from baseline at week 52, difference from placebo group (95% confidence interval) [1, 10]: 0.0(−3.6, 3.6)
Changes in ADAS-cog from the baseline at week 52, Compound A group versus placebo group (in words) ([2]; Test Example 2, all subject patients): no statistically significant difference
Changes in ADAS-cog from the baseline at week 52, Compound A low dose group versus placebo group (in words) ([2]; Test Example 2, low dose group (160 mg), within 2.6 years from clinical diagnosis of AD and MMSE score of 22 or less at screening): statistically significant difference
Change in ADAS-cog from baseline at week 52, least square means (95% confidence interval) [2, 7]: 1.3(−0.3, 4.7)
Change in ADAS-cog from baseline at week 52, difference from placebo group (95% confidence interval) [2, 8]: 1.7(−1.3, 4.7)
Change in ADAS-cog from baseline at week 52, least square means (95% confidence interval) [2, 8]: 3.0(0.8, 5.3)
Change in ADAS-cog from baseline at week 52, difference from placebo group (95% confidence interval) [2, 11]: −1.2(−3.0, 0.5)
Change in ADAS-cog from baseline at week 52, least square means (95% confidence interval) [2, 11]: 1.9(0.5, 3.2)
Change in ADAS-cog from baseline at week 52, difference from placebo group (95% confidence interval) [2, 10]: −2.6(−4.8, −0.5)
Reduction in ADCS-ADL from the baseline at week 52 (in words) ([3]; Test Example 2, low dose group (160 mg)): tended to be suppressed
Tendency to suppress reduction in ADCS-ADL, patients within 2.6 years versus all patients (in words) ([3]; Test Example 2, low dose group (160 mg), week 52): more remarkable
Change in ADCS-ADL from baseline at week 52, least square means (95% confidence interval) [3, 7]: −5.5(−7.8, −3.2)
Change in ADCS-ADL from baseline at week 52, difference from placebo group (95% confidence interval) [3, 8]: −3.5(−7.8, 0.8)
Change in ADCS-ADL from baseline at week 52, least square means (95% confidence interval) [3, 8]: −7.5(−10.8, −4.3)
Change in ADCS-ADL from baseline at week 52, difference from placebo group (95% confidence interval) [3, 11]: 0.5(−2.0, 3.0)
Change in ADCS-ADL from baseline at week 52, least square means (95% confidence interval) [3, 11]: −6.2(−8,1, −4.3)
Change in ADCS-ADL from baseline at week 52, difference from placebo group (95% confidence interval) [3, 10]: 2.6(−0.5, 5.7)
Changes in ADAS-cog from the baseline at week 52, Compound A group versus placebo group (in words) ([4]; Test Example 1, all subject patients): no statistically significant difference
Changes in ADAS-cog from the baseline at week 52, Compound A high dose group versus placebo group (in words) ([4]; Test Example 1, high dose group, patients within 2.6 years from clinical diagnosis of AD): statistically significant difference
Difference in ADAS-cog change between high dose group and placebo group, compared by periods from clinical diagnosis (in words) ([4]; Test Example 1, high dose group, periods 2.5 to 6 years from clinical diagnosis of AD): larger in patients whose period was shorter
Change in the ADAS-cog score, Compound A low dose group versus placebo group (in words) ([4]; Test Example 1, low dose group (160 mg), week 52): tended to be smaller than that in the placebo group
Change in ADAS-cog from baseline at week 52, least square means (95% confidence interval) ([4]; high dose group (160 mg 4 weeks then 320 mg 48 weeks in terms of Compound A, oral once a day), within 2.5 years from clinical diagnosis): 5.6
Change in ADAS-cog from baseline at week 52, difference from placebo group (95% confidence interval) ([4]; high dose group (160 mg 4 weeks then 320 mg 48 weeks, oral once a day), within 2.5 years from clinical diagnosis): −3.3
Change in ADAS-cog from baseline at week 52, difference from placebo group (95% confidence interval) [4, 5]: 1.8(−1.0, 4.6)
Change in ADAS-cog from baseline at week 52, least square means (95% confidence interval) [4, 5]: 8.4(6.3, 10.5)
Change in ADAS-cog from baseline at week 52, difference from placebo group (95% confidence interval) [4, 12]: −2.5
Change in ADAS-cog from baseline at week 52, least square means (95% confidence interval) [4, 12]: 6.2
Change in ADAS-cog from baseline at week 52, difference from placebo group (95% confidence interval) [4, 13]: −2.2
Change in ADAS-cog from baseline at week 52, least square means (95% confidence interval) [4, 13]: 6.1
Change in ADAS-cog from baseline at week 52, difference from placebo group (95% confidence interval) [4, 14]: −2.0
Change in ADAS-cog from baseline at week 52, least square means (95% confidence interval) [4, 14]: 6.4
Change in ADAS-cog from baseline at week 52, difference from placebo group (95% confidence interval) [4, 15]: −1.8
Change in ADAS-cog from baseline at week 52, least square means (95% confidence interval) [4, 15]: 6.4
Change in ADAS-cog from baseline at week 52, difference from placebo group (95% confidence interval) [4, 16]: −1.8
Change in ADAS-cog from baseline at week 52, least square means (95% confidence interval) [4, 16]: 6.7
Change in ADAS-cog from baseline at week 52, difference from placebo group (95% confidence interval) [4, 17]: −2.1
Change in ADAS-cog from baseline at week 52, least square means (95% confidence interval) [4, 17]: 6.5
Change in ADAS-cog from baseline at week 52, difference from placebo group (95% confidence interval) [4, 18]: −1.7
Change in ADAS-cog from baseline at week 52, least square means (95% confidence interval) [4, 18]: 6.6
Change in ADAS-cog from baseline at week 52, difference from placebo group (95% confidence interval) [4, 19]: −1.9
Change in ADAS-cog from baseline at week 52, least square means (95% confidence interval) [4, 19]: 6.5
Change in ADAS-cog from baseline at week 52, difference from placebo group (95% confidence interval) [4, 20]: −0.9
Change in ADAS-cog from baseline at week 52, least square means (95% confidence interval) [4, 20]: 7.2
Change in ADAS-cog from baseline at week 52, least square means (95% confidence interval) [4, 7]: 8.1 (6.0, 10.2)
Change in ADAS-cog from baseline at week 52, difference from placebo group (95% confidence interval) [4, 8]: 0.1 (−2.5, 2.8)
Change in ADAS-cog from baseline at week 52, least square means (95% confidence interval) [4, 8]: 6.8 (4.8, 8.7)
Change in ADAS-cog from baseline at week 52, difference from placebo group (95% confidence interval) [4, 9]: −0.5 (−2.4, 1.4)
Change in ADAS-cog from baseline at week 52, least square means (95% confidence interval) [4, 9]: 7.4 (6.0, 8.9)
Change in ADAS-cog from baseline at week 52, difference from placebo group (95% confidence interval) [4, 10]: −0.9 (−3.6, 1.8)
